In data set [1] the target is T1, Histamine H3 receptor (Homo sapiens, UniProt Q9Y5N1). The data set can be described thus: Binding affinity to human histamine H3 receptor.
Data set [2] has as its target T1, Histamine H3 receptor. As to the kind of experiment: Antagonist activity at human histamine H3 receptor. Type of data set: functional. Particulars: read-out: pA2 (converted).
The next data set addresses Cytochrome P450 2C9 (Homo sapiens, UniProt P11712). As to the kind of experiment: Inhibition of CYP2C9. Type of data set: ADME.
Data set [3] is described as follows: Plasma concentration in rat 10 mg/kg, ip after 60 mins. The class given is ADME, organism-based. Also noted: dose 10 mg/kg, route intraperitoneal.
A further data set addresses Cytochrome P450 2D6 (Homo sapiens, UniProt P10635). As to the kind of experiment: Inhibition of CYP2D6. The class given is ADME.
Data set [4] addresses Histamine H3 receptor (Rattus norvegicus, UniProt Q9QYN8). As to the kind of experiment: Antagonist activity at rat histamine H3 receptor. The settings on record: read-out: pA2 (converted). The class given is functional.
Data set [5] in a line: Drug level in rat brain at 10 mg/kg, ip after 60 mins. The class given is ADME, organism-based. Details: dose 10 mg/kg, route intraperitoneal. Particulars: read-out: Drug uptake.
Data set [6] in a line: Drug level in rat at 10 mg/kg, ip after 48 hrs. Particulars: in vivo, read-out: Drug uptake. Type of data set: ADME, organism-based. Details: dose 10 mg/kg, route intraperitoneal.
In another data set the target is Cytochrome P450 3A4 (Homo sapiens, UniProt P08684). The data set can be described thus: Inhibition of CYP3A4. The class given is ADME.
The nature of data set [7]: Half life in rat at 10 mg/kg, po. Type of data set: ADME, organism-based. Details: dose 10 mg/kg, route oral. The settings on record: in vivo.
Data set [8] can be described thus: Oral bioavailability in rat at 10 mg/kg. The class given is ADME, organism-based. Particulars: in vivo.
A further data set addresses Cytochrome P450 2C19 (Homo sapiens, UniProt P33261). As to the kind of experiment: Inhibition of CYP2C19. Type of data set: ADME.
A short description of data set [9]: Binding affinity to sigma receptor at 10 uM.
Data set [10] is described as follows: Clearance in rat at 10 mg/kg, iv. The class given is ADME, organism-based. Details: dose 10 mg/kg, route intravenous. The settings on record: in vivo.
Another data set has as its target T2, Cytochrome P450 1A2 (Homo sapiens, UniProt P05177).
T2 sequence (P05177 whole entry): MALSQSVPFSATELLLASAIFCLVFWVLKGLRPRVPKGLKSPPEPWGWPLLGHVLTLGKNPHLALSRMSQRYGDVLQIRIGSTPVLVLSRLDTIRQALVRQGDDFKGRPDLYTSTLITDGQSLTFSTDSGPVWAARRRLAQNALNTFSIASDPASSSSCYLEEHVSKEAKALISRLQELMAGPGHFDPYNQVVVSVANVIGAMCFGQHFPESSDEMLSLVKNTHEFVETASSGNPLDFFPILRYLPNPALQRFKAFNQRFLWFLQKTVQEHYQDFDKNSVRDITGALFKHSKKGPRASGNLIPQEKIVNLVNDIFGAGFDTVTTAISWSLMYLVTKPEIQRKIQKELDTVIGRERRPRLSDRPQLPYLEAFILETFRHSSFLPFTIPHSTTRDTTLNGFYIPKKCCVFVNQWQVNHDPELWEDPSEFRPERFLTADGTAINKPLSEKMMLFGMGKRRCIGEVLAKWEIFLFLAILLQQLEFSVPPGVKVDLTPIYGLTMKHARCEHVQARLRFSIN
As to the kind of experiment: Inhibition of CYP1A2. The class given is ADME.

Data set [11] can be described thus: Volume of distribution in rat at 10 mg/kg, iv. The settings on record: in vivo. The class given is ADME, organism-based. Also noted: dose 10 mg/kg, route intravenous.
Data set [12] in a line: Metabolic stability in human liver microsomes assessed as half life. The class given is ADME, Microsome. A general note: Microsomes from liver hold many membrane-bound enzymes, among them those of drug oxidation.
A short description of data set [13]: Metabolic stability in rat liver microsomes assessed as half life. The class given is ADME, Microsome.

Here are results for 26 compounds from ChEMBL document CHEMBL1143321, “Novel imidazole-based histamine H3 antagonists” (Bioorg Med Chem Lett, 2009).

The Ki is a measure of affinity in units of concentration, obtained from inhibition or displacement. Higher therefore signals weaker binding. A word on the IC50: it is the concentration at which inhibition is half-maximal. By half-life is commonly meant the time needed for the level to fall by half in the phase considered. What is called bioavailability is the share of a dose that reaches the circulation, judged against a reference dose that is usually intravenous. High values mean much systemic uptake, low ones little systemic uptake. For orientation: clearance means the rate of elimination divided by the concentration. A low value points to a low capacity for elimination. Broadly, the Vd is the apparent volume that relates the amount in the body to the concentration in plasma or blood. A high value points to extensive tissue distribution.

T1 sequence (Q9Y5N1 whole entry): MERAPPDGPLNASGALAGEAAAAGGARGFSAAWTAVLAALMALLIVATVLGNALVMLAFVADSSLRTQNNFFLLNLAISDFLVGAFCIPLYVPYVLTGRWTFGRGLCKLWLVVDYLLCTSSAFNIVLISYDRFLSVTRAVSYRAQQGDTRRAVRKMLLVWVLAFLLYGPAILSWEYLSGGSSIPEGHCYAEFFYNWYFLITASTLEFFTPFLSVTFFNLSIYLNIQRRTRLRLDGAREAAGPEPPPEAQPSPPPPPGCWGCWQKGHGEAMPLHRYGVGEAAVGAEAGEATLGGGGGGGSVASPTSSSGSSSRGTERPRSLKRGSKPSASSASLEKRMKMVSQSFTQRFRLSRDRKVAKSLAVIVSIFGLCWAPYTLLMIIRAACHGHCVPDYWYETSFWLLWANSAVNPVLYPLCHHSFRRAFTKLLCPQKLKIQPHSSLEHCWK
Chain of Cytochrome P450 2C19 (P33261 whole entry): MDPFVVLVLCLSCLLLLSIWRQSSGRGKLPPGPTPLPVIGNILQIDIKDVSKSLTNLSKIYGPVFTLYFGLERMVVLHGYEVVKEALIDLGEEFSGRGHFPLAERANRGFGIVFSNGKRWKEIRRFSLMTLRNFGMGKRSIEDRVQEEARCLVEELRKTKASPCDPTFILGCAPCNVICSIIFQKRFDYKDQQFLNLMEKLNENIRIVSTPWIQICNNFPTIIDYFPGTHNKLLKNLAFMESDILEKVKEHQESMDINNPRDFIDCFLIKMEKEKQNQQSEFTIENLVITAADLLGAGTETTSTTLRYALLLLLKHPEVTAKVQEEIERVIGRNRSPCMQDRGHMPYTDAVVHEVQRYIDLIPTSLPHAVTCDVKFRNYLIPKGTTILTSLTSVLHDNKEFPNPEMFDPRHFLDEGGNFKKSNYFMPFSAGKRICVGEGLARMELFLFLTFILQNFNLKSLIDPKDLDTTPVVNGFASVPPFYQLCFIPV
Chain of Cytochrome P450 2D6 (P10635 whole entry): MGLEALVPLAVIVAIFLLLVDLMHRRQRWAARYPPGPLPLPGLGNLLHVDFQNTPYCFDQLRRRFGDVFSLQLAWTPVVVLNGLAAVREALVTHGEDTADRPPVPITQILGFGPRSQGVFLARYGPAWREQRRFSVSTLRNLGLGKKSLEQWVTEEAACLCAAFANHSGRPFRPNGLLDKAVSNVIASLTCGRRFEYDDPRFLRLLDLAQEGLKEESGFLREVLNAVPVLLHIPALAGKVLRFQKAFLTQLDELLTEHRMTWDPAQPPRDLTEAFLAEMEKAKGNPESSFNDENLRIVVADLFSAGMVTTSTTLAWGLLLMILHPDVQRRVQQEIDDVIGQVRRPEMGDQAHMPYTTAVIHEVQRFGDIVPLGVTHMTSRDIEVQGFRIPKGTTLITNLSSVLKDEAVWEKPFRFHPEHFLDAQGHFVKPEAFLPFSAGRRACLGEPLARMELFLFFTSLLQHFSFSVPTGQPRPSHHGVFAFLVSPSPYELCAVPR
Chain of Histamine H3 receptor (Rattus norvegicus, UniProt Q9QYN8) (Q9QYN8 whole entry): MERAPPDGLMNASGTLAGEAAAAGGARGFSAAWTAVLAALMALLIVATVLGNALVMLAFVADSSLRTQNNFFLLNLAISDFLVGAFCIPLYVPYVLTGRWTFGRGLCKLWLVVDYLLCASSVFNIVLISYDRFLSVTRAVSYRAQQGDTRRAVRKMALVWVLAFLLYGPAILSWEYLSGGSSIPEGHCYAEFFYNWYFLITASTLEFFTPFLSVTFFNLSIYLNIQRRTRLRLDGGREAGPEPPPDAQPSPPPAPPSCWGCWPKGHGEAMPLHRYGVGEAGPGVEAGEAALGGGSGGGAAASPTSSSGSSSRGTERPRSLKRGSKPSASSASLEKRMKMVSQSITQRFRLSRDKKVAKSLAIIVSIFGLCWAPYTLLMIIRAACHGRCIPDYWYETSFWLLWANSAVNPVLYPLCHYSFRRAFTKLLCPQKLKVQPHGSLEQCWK
Chain of Cytochrome P450 2C9 (P11712 whole entry): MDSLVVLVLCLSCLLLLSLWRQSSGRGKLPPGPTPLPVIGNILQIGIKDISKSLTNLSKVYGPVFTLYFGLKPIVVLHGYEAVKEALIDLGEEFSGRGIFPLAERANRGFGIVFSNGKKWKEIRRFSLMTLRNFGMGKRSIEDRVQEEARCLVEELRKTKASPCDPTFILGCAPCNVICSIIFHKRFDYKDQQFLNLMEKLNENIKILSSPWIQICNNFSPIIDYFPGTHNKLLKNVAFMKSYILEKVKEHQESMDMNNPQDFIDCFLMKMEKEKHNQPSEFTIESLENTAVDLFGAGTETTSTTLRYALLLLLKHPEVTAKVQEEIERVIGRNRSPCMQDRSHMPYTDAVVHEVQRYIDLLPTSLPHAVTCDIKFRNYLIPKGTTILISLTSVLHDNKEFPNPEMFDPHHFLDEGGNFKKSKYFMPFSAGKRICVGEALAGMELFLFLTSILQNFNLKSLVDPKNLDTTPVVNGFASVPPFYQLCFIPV
Chain of Cytochrome P450 3A4 (P08684 whole entry): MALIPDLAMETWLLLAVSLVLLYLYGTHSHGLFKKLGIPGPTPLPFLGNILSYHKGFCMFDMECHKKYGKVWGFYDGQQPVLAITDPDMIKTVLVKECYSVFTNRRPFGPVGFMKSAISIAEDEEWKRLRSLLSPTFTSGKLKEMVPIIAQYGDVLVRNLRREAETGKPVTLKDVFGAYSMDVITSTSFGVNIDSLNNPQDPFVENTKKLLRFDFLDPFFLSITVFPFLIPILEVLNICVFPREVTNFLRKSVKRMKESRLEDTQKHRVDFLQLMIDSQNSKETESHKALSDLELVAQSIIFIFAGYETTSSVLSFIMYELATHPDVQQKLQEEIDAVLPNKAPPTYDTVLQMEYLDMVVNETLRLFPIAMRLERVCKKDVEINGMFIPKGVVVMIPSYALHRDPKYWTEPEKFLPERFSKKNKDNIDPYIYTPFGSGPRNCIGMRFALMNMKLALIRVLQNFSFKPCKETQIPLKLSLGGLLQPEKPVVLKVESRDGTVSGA

For `CN(C)CCCSc1ncc(C(=O)c2ccc(Cl)cc2)n1C`, affinity at Histamine H3 receptor [1] was put at a Ki of 5 nM. For the same compound, at Histamine H3 receptor [2], the Kb is 2 nM.

On to `CC(C)N1CCC(COc2ncc(C(=O)c3cccc(Cl)c3)n2C)CC1`, for which the Ki on Histamine H3 receptor [1] came to 5 nM. Also, the Kb on Histamine H3 receptor [2] was 0.2 nM.

Consider `CN(C)CCSc1ncc(Cc2ccc(Cl)cc2)n1C`, for which the Ki at Histamine H3 receptor [1] worked out at 71 nM. The Kb on Histamine H3 receptor [2] is 50.1 nM.

With `CC(C)N1CCC(COc2ncc(C(=O)c3ccc(Cl)cc3)n2C)CC1`, the IC50 against Cytochrome P450 2C9, on Cytochrome P450 2D6, against Cytochrome P450 3A4, against Cytochrome P450 2C19 and at Cytochrome P450 1A2 was over 10 µM throughout. The concentration at 1 h came to 2600 nM in data set [3] and 17 µM in data set [5]. For the same compound, the Kb on Histamine H3 receptor [4] was 10 nM; at Histamine H3 receptor [2] it was 0.501 nM. Besides, in [6], the concentration at 48 h amounted to 3.8 µM. Also, at Histamine H3 receptor [1], the affinity, expressed as Ki, was 3 nM. This compound had a half-life in data set [7] of 540 min. Further, the bioavailability in data set [8] is 10%. The compound also showed an Activity in data set [9] of 77%. The same compound came in with a clearance in data set [10] of 9.3 mL/min/kg. Also, the distribution volume (Vd) in data set [11] was determined as 5.2 L/kg.

Consider `CN(C)CCCSc1ncc(C(O)c2ccc(Cl)cc2)n1C` (stereo not given), for which, at Histamine H3 receptor [1], affinity was put at a Ki of 18 nM. The Kb at Histamine H3 receptor [2] was 3.98 nM.

For the compound `CC(C)N1CCC(CCOc2ncc(C(=O)c3ccc(Cl)cc3)n2C)CC1`, the Ki at Histamine H3 receptor [1] worked out at 70 nM. Further, the Kb on Histamine H3 receptor [2] is 79.4 nM.

On to `Cn1c(C(=O)c2ccc(Cl)cc2)cnc1OCCCN1CCCCC1`, for which the half-life in [12] was over 180 min; in [13] it was 55 min. Besides, affinity at Histamine H3 receptor [1] was put at a Ki of 14 nM. The Kb at Histamine H3 receptor [2] was 12.6 nM.

As for `CN(C)CCCSc1ncc(/C(=N\O)c2ccc(Cl)cc2)n1C`, the affinity on Histamine H3 receptor [1], expressed as Ki, was 2 nM. For the same compound, on Histamine H3 receptor [2], the Kb was 3.98 nM.

`c1cc(Sc2ccc([C@H]3CC[C@H]4CCCCN43)cc2)ccn1` returned a Ki on Histamine H3 receptor [1] of 12 nM.

`CC(C)N1CCC(COc2ncc(C(=O)c3ccc(Br)cc3)n2C)CC1` yielded a Ki at Histamine H3 receptor [1] of 3 nM. Further, the Kb on Histamine H3 receptor [2] is 0.794 nM.

For the compound `CC(C)N1CCC(Oc2ncc(C(=O)c3ccc(Cl)cc3)n2C)CC1`, the affinity on Histamine H3 receptor [1] corresponds to a Ki of 10 nM. The Kb at Histamine H3 receptor [2] was 6.31 nM.

Turning to `Cn1c(C(=O)c2ccc(Cl)cc2)cnc1SCCCCN1CCCCC1`, the Ki at Histamine H3 receptor [1] stood at 50 nM. In other words, the double-digit nanomolar range.

Compound `CC(C)N1CCC(COc2ncc(C(=O)c3ccc(F)cc3)n2C)CC1` came in with an inhibitory constant (Ki) at Histamine H3 receptor [1] of 3 nM. Moreover, the Kb at Histamine H3 receptor [2] is 0.316 nM.

For `Cn1c(C(=O)c2ccc(Cl)cc2)cnc1CCCCN1CCCCC1`, the half-life in data set [12] came out at 179 min; in [13] it was 4 min. This compound came in with a Ki on Histamine H3 receptor [1] of 24 nM. Besides, the Kb on Histamine H3 receptor [2] is 10 nM.

Compound `CC(C)N1CCC(COc2ncc(C(=O)c3ccccc3)n2C)CC1` came in with an inhibition constant Ki at Histamine H3 receptor [1] of 1 nM. Further, the Kb at Histamine H3 receptor [2] is 0.316 nM.

Consider `CCCCN(CCCC)CCCOc1ccc(-c2cn3cccc(C)c3n2)cc1`, for which the affinity at Histamine H3 receptor [1], expressed as Ki, was 4 nM.

Regarding `CC(C)N1CCC(COc2ncc(C(=O)c3ccc([N+](=O)[O-])cc3)n2C)CC1`, at Histamine H3 receptor [1], the inhibition constant Ki was 4 nM. In addition, at Histamine H3 receptor [2], the Kb was 1 nM.

In turn, `CC(C)N1CCC(COc2ncc(C(=O)c3ccccc3Cl)n2C)CC1` returned an inhibition constant (Ki) on Histamine H3 receptor [1] of 1 nM. Besides, the Kb at Histamine H3 receptor [2] is 0.00794 nM.

On to `CC(C)N1CCC(COc2ncc(C(=O)c3cc(Cl)cc(Cl)c3)n2C)CC1`, for which the Kb at Histamine H3 receptor [2] is 1 nM.

On to `CC(C)N1CCC(COc2ncc(C(=O)c3ccc(C(F)(F)F)cc3)n2C)CC1`, for which the Ki at Histamine H3 receptor [1] turned out to be 4 nM. Also, the Kb at Histamine H3 receptor [2] is 0.501 nM.

At Histamine H3 receptor [1], `CN(C)CCCSc1ncc(Cc2ccc(Cl)cc2)n1C` came in with an inhibition constant Ki of 20 nM. Also, the Kb at Histamine H3 receptor [2] was 6.31 nM.

As to `CC(C)c1ccc(C(=O)c2cnc(OCC3CCN(C(C)C)CC3)n2C)cc1`, the inhibitory constant (Ki) at Histamine H3 receptor [1] amounted to 9 nM. The Kb at Histamine H3 receptor [2] is 1.26 nM.

For the compound `Cn1c(C(=O)c2ccc(Cl)cc2)cnc1SCCCN1CCCCC1`, the half-life in data set [12] came to 149 min; in data set [13] it was 7 min. This compound also registered an inhibition constant Ki at Histamine H3 receptor [1] of 6 nM. For the same compound, the Kb at Histamine H3 receptor [2] was 20 nM.

`Cn1c(C(=O)c2ccc(Cl)cc2)cnc1NCCCN1CCCCC1`: the half-life is over 180 min in data set [12] and 4 min in [13]. Also, the inhibitory constant (Ki) on Histamine H3 receptor [1] is 50 nM. The Kb at Histamine H3 receptor [2] was 39.8 nM.

Take `CC(C)CCCSc1ncc(C(=O)c2ccc(Cl)cc2)n1C`: the Ki on Histamine H3 receptor [1] is over 5000 nM. Further, the Kb at Histamine H3 receptor [2] is 10000 nM.

The compound `CC(C)N1CCC(Sc2ncc(C(=O)c3ccc(Cl)cc3)n2C)CC1` registered a Ki at Histamine H3 receptor [1] of 2 nM. The Kb at Histamine H3 receptor [2] is 0.501 nM.
